Assay results: ChEMBL document CHEMBL4251613, “Synthesis and biological evaluation of diarylheptanoids as potential antioxidant and anti-inflammatory agents” (Eur J Med Chem, 2018)
Calls of active or inactive are those of the source. No cut-off for these calls is given here.

Tests used:
RAW264.7 [1] = test: Cytotoxicity against mouse RAW264.7 cells assessed as reduction in cell viability at 30 uM after 18 hrs by MTT assay; format: cell-based; details: raw264.7, 18 h
RAW264.7 [2] = test: Anti-inflammatory activity in mouse RAW264.7 cells assessed as inhibition of LPS-induced NO production at 30 uM preincubated for 30 mins followed by LPS stimulation measured after 4 hrs by Griess assay relative to control; format: functional
RAW264.7 [3] = test: Anti-inflammatory activity in mouse RAW264.7 cells assessed as inhibition of LPS-induced IL-6 mRNA level at 30 uM preincubated for 30 mins followed by LPS stimulation measured after 4 hrs by RT-PCR method relative to control; format: functional
RAW264.7 [4] = test: Cytotoxicity against mouse RAW264.7 cells assessed as reduction in cell viability up to 30 uM after 18 hrs by MTT assay; format: cell-based; details: raw264.7, 18 h
RAW264.7 [5] = test: Cytotoxicity against mouse RAW264.7 cells assessed as reduction in cell viability at 30 to 50 uM after 18 hrs by MTT assay; format: cell-based; details: raw264.7, 18 h
RAW264.7 [6] = test: Anti-inflammatory activity in mouse RAW264.7 cells assessed as inhibition of LPS-induced ROS production at 30 uM measured after 4 hrs by H2DCFDA-AM probe based fluorescence assay; format: functional, cell-based
RAW264.7 [7] = test: Anti-inflammatory activity in mouse RAW264.7 cells assessed as inhibition of LPS-induced IL-1beta mRNA level at 30 uM preincubated for 30 mins followed by LPS stimulation measured after 4 hrs by RT-PCR method relative to control; format: functional
RAW264.7 [8] = test: Anti-inflammatory activity in mouse RAW264.7 cells assessed as inhibition of LPS-induced ROS production measured after 4 hrs by H2DCFDA-AM probe based fluorescence assay; format: functional, cell-based; details: for IC50: RAW264.7, 4 h
RAW264.7 [9] = test: Cytotoxicity against mouse RAW264.7 cells assessed as reduction in cell viability at 30 uM after 1 hr by MTT assay; format: cell-based; details: raw264.7, 1 h
RAW264.7 [10] = test: Anti-inflammatory activity in mouse RAW264.7 cells assessed as inhibition of LPS-induced ROS production at 1 to 10 uM measured after 4 hrs by H2DCFDA-AM probe based fluorescence assay; format: functional, cell-based
RAW264.7 [11] = test: Cytotoxicity against mouse RAW264.7 cells assessed as reduction in cell viability after 18 hrs by MTT assay; format: cell-based; details: raw264.7, 18 h
[12] = Cytotoxicity against mouse RAW264.7 cells assessed as cell viability at 30 uM after 18 hrs by MTT assay relative to control; format: cell-based; details: read-out: Activity

| IC50 (RAW264.7 [8]) [µM] | SMILES | Activity (RAW264.7 [1]) | inhibition at 30 µM (RAW264.7 [2]) [%] | inhibition at 30 µM (RAW264.7 [3]) [%] | Activity (RAW264.7 [4]) | Activity (RAW264.7 [5]) | inhibition (RAW264.7 [6]) | inhibition at 30 µM (RAW264.7 [7]) [%] | other results |
| --- | --- | --- | --- | --- | --- | --- | --- | --- | --- |
| – | COc1ccc(CCn2cc(CCc3ccc(O)cc3)nn2)cc1Br | Non-Toxic | – | – | – | – | – | – | – |
| – | O=C1N[C@H]2Cc3ccc(cc3)Oc3cc(ccc3O)CCCN1C2=O | Non-Toxic | – | – | – | – | – | – | – |
| – | COc1ccc2cc1Oc1ccc(cc1)CC/C=C\C(O)CC2 (centres undefined) | Non-Toxic | – | – | – | – | – | – | – |
| – | COc1ccc2cc1Oc1ccc(cc1)CCC(=O)NCCC2 | Non-Toxic | – | – | – | – | – | – | – |
| – | COc1ccc2cc1Oc1ccc(cc1)C[C@@H]1NC(=O)N(CCC2)C1=O | Non-Toxic | – | – | – | – | – | – | – |
| 30 | COc1ccc2cc1Oc1ccc(cc1)C[C@H](N)C(=O)NCCC2 | Non-Toxic | > 80 | > 60 | Non-Toxic | Non-Toxic | Active | 30 to 50 | – |
| – | N[C@H]1Cc2ccc(cc2)Oc2cc(ccc2O)CCCNC1=O | Non-Toxic | – | – | – | – | inactive | – | – |
| – | Oc1ccc2cc1Oc1ccc(cc1)CCc1cn(nn1)CC2 | Non-Toxic | – | – | – | – | – | – | – |
| 30 | Cc1c(C)c2c(c(C)c1O)CCC(C)(C(=O)O)O2 (centres undefined) [TROLOX] | Non-Toxic | – | – | – | – | – | – | inhibition (RAW264.7 [8]): Dose-dependent effect |
| 30 to 50 | O=C1CCc2ccc(cc2)Oc2cc(ccc2O)CCCN1 | Non-Toxic | 65 | > 60 | Non-Toxic | Non-Toxic | Active | 30 to 50 | – |
| 30 to 50 | COc1ccc(CCCNC(=O)CCc2ccc(O)cc2)cc1Br | Non-Toxic | > 80 | > 60 | Non-Toxic | Toxic | Active | 30 to 50 | – |
| – | COc1ccc2cc1Oc1ccc(cc1)CCc1cn(nn1)CC2 | Non-Toxic | – | – | – | – | – | – | – |
| – | COc1ccc(CCC(O)/C=C\CCc2ccc(O)cc2)cc1Br (centres undefined) | Toxic | – | – | – | – | Active | – | Activity (RAW264.7 [9]): Non-Toxic |
| 30 to 50 | Oc1ccc2cc1Oc1ccc(cc1)CC/C=C\C(O)CC2 (centres undefined) | Non-Toxic | > 80 | > 60 | Non-Toxic | Toxic | Active | 30 to 50 | – |
| 30 | Oc1ccc2cc1Oc1ccc(cc1)CC/C=C\C=C\C2 | – | > 65 | – | – | – | Active | – | inhibition (RAW264.7 [3]): Active; Activity (RAW264.7 [9]): Non-Toxic; inhibition (RAW264.7 [10]): inactive; inhibition (RAW264.7 [7]): Active; Activity (RAW264.7 [11]): Dose-dependent effect; viability at 18 h, 30 µM [12]: < 60% |
| 30 | COc1ccc(CCCNC(=O)[C@@H](N)Cc2ccc(O)cc2)cc1Br | Non-Toxic | > 80 | > 60 | Non-Toxic | Non-Toxic | Active | 30 to 50 | – |
